Where two headings read alike, the source gives them in different places. Marks after values point to notes of the source that are not given here.
Columns and labels:
[1] = test system: methicillin-sensitive Staphylococcus aureus ATCC 29213; assay: MIC broth microdilution, S. aureus 29213; type: cell-based
In short: (§1)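 CLSI broth microdilution in Luria Broth with eleven two-fold dilutions across 0.10 to 100 μM, inoculated with ~10^5 cells from log-phase culture. Values come from at least three independent experiments.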

[2] = test system: SA-138 (clinical isolate); assay: MIC broth microdilution, SA-138; type: cell-based, Staphylococcus aureus
In short: as §1

[3] = test system: MRSA BAA-1707; assay: MIC broth microdilution, MRSA BAA-1707; type: cell-based, Staphylococcus aureus
In short: as §1

[4] = test system: methicillin-resistant Staphylococcus aureus MRSA-2 (clinical isolate); assay: MIC broth microdilution, MRSA-2; type: cell-based; conditions: for MRSA-2 MIC: Table 2A
In short: (§2)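 CLSI broth microdilution in Luria Broth: eleven two-fold dilutions (0.10–100 μM), ~10^5 log-phase cells per well, 16–18 h at 37 °C. MIC was the lowest concentration preventing growth, supported by OD600. DMSO up to 1% v/v was the vehicle; values come from at least three independent experiments.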

[5] = test system: MRSA-1 (clinical isolate); assay: MIC broth microdilution, MRSA-1; type: cell-based, Staphylococcus aureus
In short: as §1

[6] = test system: Acinetobacter baumannii (ATCC 1794); assay: MIC broth microdilution, A. baumannii 1794; type: cell-based; conditions: for MIC A. baumannii 1794: Table 1A; for MIC: Acinetobacter baumannii, ATCC1794
In short: as §2

[7] = test system: SA-129 (clinical isolate); assay: MIC broth microdilution, SA-129; type: cell-based, Staphylococcus aureus
In short: as §1

[8] = test system: SA-156 (clinical isolate); assay: MIC broth microdilution, SA-156; type: cell-based, Staphylococcus aureus
In short: as §1

[9] = test system: MRSA BAA-44; assay: MIC broth microdilution, MRSA BAA-44; type: cell-based, Staphylococcus aureus
In short: as §1

[10] = test system: human red blood cells (hRBC); assay: Hemolysis of red blood cells; type: cell-based; conditions: for RBC HC50: Table 4, concentration required to lyse 50% of red blood cells
In short: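 hRBCs (2% suspension) exposed to compounds at 0.2–200 μM (ten-point dose-response) for 1 h at 37 °C; after centrifugation, haemoglobin release read as supernatant OD at 405 nm. DMSO set as 0% and Triton X as 100% haemolysis; HC50 from dose-response curves, three independent experiments.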

[11] = test system: Pseudomonas aeruginosa (PAO1); assay: MIC broth microdilution, PAO1; type: cell-based
In short: as §2

[12] = test system: vancomycin-resistant Enterococcus faecium (VRE strain ATCC 700221); assay: MIC broth microdilution, VRE 700221; type: cell-based; conditions: for MIC E. faecium VRE 700221: Table 1A; for VRE MIC: Table 2A; for MIC VRE 700221: Table 4
In short: as §2

[13] = test system: methicillin-resistant Staphylococcus epidermidis (MRSE strain ATCC 35984); assay: MIC broth microdilution, MRSE 35984; type: cell-based; conditions: for MIC S. epidermidis MRSE 35984: Table 1A; for MIC MRSE 35984: Table 4
In short: as §2

[14] = test system: SA-147 (clinical isolate); assay: MIC broth microdilution, SA-147; type: cell-based, Staphylococcus aureus
In short: as §1

[15] = Table 1B, read-out: MIC MRSA BAA-1707
[16] = Table 2A, read-out: MRSA BAA-1707 MIC
[17] = Table 3, read-out: MIC MRSA BAA-1707

CCCCCCCCCCCCCCCCn1cc[n+](Cc2cccc(F)c2)c1C.[Br-] [Compound 18] was tested, and the “MIC S. aureus 29213” value ([1]; Table 1B) was 4.69^a μM, the “MIC S. aureus 29213” value ([1]; Table 3) was 4.69^a μM and the MIC ([2]; Table 1B) was 3.13 µM. The MIC ([2]; Table 3) was 3.13 µM, the MIC [3, 15] was 1.56 µM and the MIC [3, 16] was 1.56 µM. For the same compound, the MIC [3, 17] was 1.56 µM, the “MIC MRSA 1707” value ([3]; Table 4) was 1.56 µM and the “MIC MRSA-2” value ([4]; Table 1A) was 2.35^a. The “MIC MRSA-2” value ([4]; Table 1B) was 2.35^a μM, the “MRSA-2 MIC” value [4] was 2.35^a μM and the “MIC MRSA-2” value ([4]; Table 3) was 2.35^a μM. For the same compound, the “MIC MRSA-2” value ([4]; Table 4) was 2.35a micromolar, the MIC ([5]; Table 1B) was 3.13 µM and the MIC ([5]; Table 3) was 3.13 µM. For the same compound, the “MIC A. baumannii 1794” value ([6]; in µM) was 25, the “MIC A. bau. 1794” value ([6]; Table 4) was 25 µM and the MIC ([7]; Table 1B) was 3.13 µM. It also gave an MIC ([7]; Table 3) of 3.13 µM, an MIC ([8]; Table 1B) of 3.13 µM and an MIC ([8]; Table 3) of 3.13 µM. The “MIC MRSA BAA-44” value ([9]; Table 1B) was 2.35^a μM, the “MIC MRSA BAA-44” value ([9]; Table 3) was 2.35^a μM and the HC50 ([10]; Table 1A) was 16.7 µM. The “RBC HC50” value [10] was 16.7 µM, the MIC PAO1 ([11]; Table 1A) was over 100 µM and the “MIC PAO1” value ([11]; Table 4) was over 100 µM. The MIC E. faecium VRE 700221 [12] was 1.56 µM, the “VRE MIC” value [12] was 1.56 µM and the “MIC VRE 700221” value [12] was 1.56 µM. For the same compound, the “MIC S. epidermidis MRSE 35984” value [13] was 1.17^a, the “MRSE 35984 MIC” value ([13]; Table 2A) was 1.17^a μM and the “MIC MRSE 35984” value [13] was 1.17a micromolar. For the same compound, the “MIC SA-147” value ([14]; Table 1B) was 2.35^a μM and the “MIC SA-147” value ([14]; Table 3) was 2.35^a μM.
For CCCCCCCCCCCCCCCCn1cc(-c2ccccc2)[n+](C)n1.[I-] [Compound 30], the MIC ([1]; Table 1B) was 3.13 µM, the MIC ([1]; Table 3) was 3.13 µM and the “MIC SA-138” value ([2]; Table 1B) was 2.35^a μM. The “MIC SA-138” value ([2]; Table 3) was 2.35^a μM, the MIC [3, 15] was 3.13 µM and the MIC [3, 16] was 3.13 µM. The MIC [3, 17] was 3.13 µM, the “MIC MRSA 1707” value ([3]; Table 4) was 3.13 µM and the MIC MRSA-2 ([4]; Table 1A) was 3.13 µM. For the same compound, the MIC ([4]; Table 1B, read-out: MIC MRSA-2) was 6.25 µM, the “MRSA-2 MIC” value [4] was 3.13 µM and the MIC ([4]; Table 3, read-out: MIC MRSA-2) was 6.25 µM. The “MIC MRSA-2” value ([4]; Table 4) was 3.13 µM, the “MIC MRSA-1” value ([5]; Table 1B) was 4.69^a μM and the “MIC MRSA-1” value ([5]; Table 3) was 4.69^a μM. The “MIC A. baumannii 1794” value ([6]; in µM) was 12.5, the “MIC A. bau. 1794” value ([6]; Table 4) was 12.5 µM and the MIC ([7]; Table 1B) was 1.56 µM. For the same compound, the MIC ([7]; Table 3) was 1.56 µM, the “MIC SA-156” value ([8]; Table 1B) was 2.35^s μM and the “MIC SA-156” value ([8]; Table 3) was 2.35^a μM. For the same compound, the “MIC MRSA BAA-44” value ([9]; Table 1B) was 4.69^a μM, the “MIC MRSA BAA-44” value ([9]; Table 3) was 4.69^a μM and the HC50 ([10]; Table 1A) was 12.6 µM. For the same compound, the “RBC HC50” value [10] was 12.6 µM, the MIC PAO1 ([11]; Table 1A) was over 100 µM and the “MIC PAO1” value ([11]; Table 4) was over 100 µM. For the same compound, the MIC E. faecium VRE 700221 [12] was 3.13 µM, the “VRE MIC” value [12] was 3.13 µM and the “MIC VRE 700221” value [12] was 3.13 µM. The MIC S. epidermidis MRSE 35984 [13] was 1.56 µM, the MIC ([13]; Table 2A, read-out: MRSE 35984 MIC) was 1.56 µM and the “MIC MRSE 35984” value [13] was 1.56 µM. The MIC ([14]; Table 1B) was 1.56 µM and the MIC ([14]; Table 3) was 1.56 µM.
CCCCCCCCCCCCCCCCn1cc[n+](Cc2ccccc2)c1C [NH125, 3-benzyl-1-hexadecyl-2-methyl-1H-imidazol-3-ium bromide, reference compound] showed an MIC ([1]; Staphylococcus aureus, ATCC29213, Table 3) of 4.69 µM, an MIC ([2]; Staphylococcus aureus, Table 3) of 6.25 µM and an MIC ([3]; Staphylococcus aureus, Table 1, read-out: MIC MRSA BAA-1707) of 2.35 µM. The MIC ([3]; Staphylococcus aureus, Table 2, read-out: MRSA BAA-1707 MIC) was 2.35 µM, the MIC ([3]; Staphylococcus aureus, Table 4, read-out: MIC MRSA 1707) was 2.35 µM and the “MIC MRSA BAA-1707” value ([3]; Table 3) was 2.35^a μM. It also gave an MIC ([4]; Staphylococcus aureus, BAA-1707 / MRSA, MRSA-2 and MRSA BAA-1707, read-out: MIC against two MRSA strains) of 2.35 to 4.69 µM, an MIC ([4]; Staphylococcus aureus, MRSA, Table 1, read-out: MIC MRSA-2) of 4.69 µM and an MIC ([4]; Staphylococcus aureus, MRSA, Table 4, read-out: MIC MRSA-2) of 4.69 µM. For the same compound, the MIC ([4]; Staphylococcus aureus, MRSA, Table 3, read-out: MIC MRSA-2) was 3.13 µM, the “MIC MRSA-2” value ([4]; Table 1A) was 4.69^a and the MIC ([5]; Staphylococcus aureus, MRSA, Table 3) was 6.25 µM. For the same compound, the MIC ([6]; Table 1, read-out: MIC A. baumannii 1794) was 37.5 µM, the MIC ([6]; Table 4, read-out: MIC A. bau. 1794) was 37.5 µM and the “MIC A. baumannii 1794” value [6] was 37.5^a. For the same compound, the MIC ([7]; Staphylococcus aureus, Table 3) was 4.69 µM, the MIC ([8]; Staphylococcus aureus, Table 3) was 6.25 µM and the MIC ([9]; Staphylococcus aureus, Table 3) was 4.69 µM. The hemolytic activity [10] was “potent hemolytic activities”, the HC50 ([10]; human, 1 h, pH 7.2) was 35.6 µM and the MIC ([11]; Pseudomonas aeruginosa, PAO1, Table 1) was over 100 µM. For the same compound, the MIC PAO1 ([11]; Table 1A) was over 100 µM, the “MIC PAO1” value ([11]; Table 4) was over 100 µM and the MIC ([12]; Table 1, read-out: MIC VRE 700221) was 3.13 µM. The MIC E. faecium VRE 700221 [12] was 3.13 µM, the MIC ([12]; Table 2, read-out: VRE 700221 MIC) was 3.13 µM and the “MIC VRE 700221” value [12] was 3.13 µM. For the same compound, the MIC ([13]; Staphylococcus epidermidis, Table 1, read-out: MIC MRSE 35984) was 4.69 µM, the MIC ([13]; Staphylococcus epidermidis, Table 2, read-out: MRSE 35984 MIC) was 4.69 µM and the “MIC S. epidermidis MRSE 35984” value [13] was 4.69^a. The “MIC MRSE 35984” value [13] was 4.69a micromolar and the MIC ([14]; Staphylococcus aureus, Table 3) was 4.69 µM.
